In US9351955B2, “Compounds and pharmaceutical compositions thereof for the treatment of cystic fibrosis” (Galapagos NV, priority 2013, dated 2016):

Molecular target: T1, CFTR ΔF508 mutant (Homo sapiens, UniProt P13569, DEL508-508)
T1 construct: expressed in transfected cells; host or cells: CFBE41o- (adenoviral transduction)
Assay: YFP-halide influx assay for the CFTR-ΔF508 mutation (384 well, CFBE41o- cells, FDSS/μCell)
Format: cell-based
Conditions: forskolin 10.67 μM, fluorescence after 36 seconds, read-out: EC50 measured by YFP-halide influx assay for the CFTR-ΔF508
Source text: 6.2. YFP-Halide Influx Assay for the CFTR-ΔF508 Mutation
The YFP halide influx assay measures the functionality of the cystic fibrosis Transmembrane Conductance regulator (CFTR) channels in the cystic fibrosis bronchial epithelium cell line CFBE41o-. The assay is used to evaluate the capacity of compounds to increase the open probability of existing CFTR channels in the membrane. It makes use of the observation that the yellow fluorescent protein (YFP) variant YFP H148Q, I152L has its fluorescence substantially quenched by halide ions like Cl— and I— (Galietta et al., 2001; Nagai et al., 2002).
For this purpose, CFBE410-cells are seeded in 384 well plates (3000 CFBE cells/well). One day after seeding, the CFBE cells are transduced with adenoviral vectors that direct the expression of the CFTR ΔF508 mutant and of the YFP reporter. Cells are incubated at 27° C., 5% CO2 for 24 hours so as to allow for the proper folding and migration to the membrane of the CFTR channel or treated with a CFTR modulator during 24 h at 37° C.
The I— induced quenching of fluorescence is recorded […] immediately after injection of I— for 2 min on an FDSS/μCell (Hamamatsu). The capacity of a compound to increase the channel opening is directly correlated with the decrease in fluorescence, and is expressed as (1−(fluorescence after 36 seconds (F)/fluorescence before injection (F0))) and an EC50 can be derived from a (1−F/F0) vs compound concentration plot.

T1 sequence (P13569 with tags, fused parts or gaps DEL508-508): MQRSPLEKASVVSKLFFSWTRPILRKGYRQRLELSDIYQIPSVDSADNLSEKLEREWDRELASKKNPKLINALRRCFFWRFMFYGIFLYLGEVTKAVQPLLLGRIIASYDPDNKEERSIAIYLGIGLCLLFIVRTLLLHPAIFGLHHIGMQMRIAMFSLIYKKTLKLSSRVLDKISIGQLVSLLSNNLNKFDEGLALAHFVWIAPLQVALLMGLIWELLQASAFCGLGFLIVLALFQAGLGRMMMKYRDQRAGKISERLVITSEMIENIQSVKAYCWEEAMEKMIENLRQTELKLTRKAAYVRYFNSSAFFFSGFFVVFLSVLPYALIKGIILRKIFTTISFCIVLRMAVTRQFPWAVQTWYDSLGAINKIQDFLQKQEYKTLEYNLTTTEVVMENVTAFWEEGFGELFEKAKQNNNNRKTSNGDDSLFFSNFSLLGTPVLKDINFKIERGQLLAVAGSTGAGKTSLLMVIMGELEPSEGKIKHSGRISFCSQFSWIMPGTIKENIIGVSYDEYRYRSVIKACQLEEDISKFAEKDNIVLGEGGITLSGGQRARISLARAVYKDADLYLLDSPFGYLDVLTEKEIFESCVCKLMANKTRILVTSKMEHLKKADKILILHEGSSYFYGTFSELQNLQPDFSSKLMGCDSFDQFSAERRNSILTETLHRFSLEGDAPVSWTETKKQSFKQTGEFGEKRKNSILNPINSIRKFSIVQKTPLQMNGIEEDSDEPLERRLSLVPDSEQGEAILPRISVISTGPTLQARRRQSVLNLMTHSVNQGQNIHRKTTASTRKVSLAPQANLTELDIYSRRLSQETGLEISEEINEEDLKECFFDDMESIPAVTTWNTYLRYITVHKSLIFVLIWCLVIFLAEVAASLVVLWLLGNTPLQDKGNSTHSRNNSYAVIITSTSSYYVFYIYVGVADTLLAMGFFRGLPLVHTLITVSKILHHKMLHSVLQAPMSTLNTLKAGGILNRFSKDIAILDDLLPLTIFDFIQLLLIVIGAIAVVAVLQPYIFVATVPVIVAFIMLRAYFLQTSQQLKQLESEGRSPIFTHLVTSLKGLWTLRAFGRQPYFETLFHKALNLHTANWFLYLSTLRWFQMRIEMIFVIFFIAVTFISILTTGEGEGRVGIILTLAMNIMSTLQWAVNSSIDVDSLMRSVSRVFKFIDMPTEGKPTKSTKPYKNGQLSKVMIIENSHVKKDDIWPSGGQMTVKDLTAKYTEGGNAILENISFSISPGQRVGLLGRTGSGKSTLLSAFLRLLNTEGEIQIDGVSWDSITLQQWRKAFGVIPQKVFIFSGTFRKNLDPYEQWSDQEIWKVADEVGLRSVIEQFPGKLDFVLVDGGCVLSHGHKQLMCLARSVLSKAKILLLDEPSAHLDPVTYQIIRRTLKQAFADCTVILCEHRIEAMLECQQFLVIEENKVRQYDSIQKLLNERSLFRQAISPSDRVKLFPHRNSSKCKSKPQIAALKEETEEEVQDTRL

Structure (SMILES) | EC50 [nM]
CC1(C)Cc2c(sc(NC(=O)C3CC3F)c2C(N)=O)C(C)(C)O1 (single isomer, unassigned) [Compound 43, Cis-2-[[2-fluorocyclopropanecarbonyl]amino]-5,5,7,7-tetramethyl-4H-thieno[2,3-c]pyran-3-carboxamide] | 495
CC1(C)Cc2c(sc(NC(=O)C3CC3F)c2C(N)=O)C(C)(C)O1 (single isomer, unassigned) [Compound 44, Cis-2-[[2-fluorocyclopropanecarbonyl]amino]-5,5,7,7-tetramethyl-4H-thieno[2,3-c]pyran-3-carboxamide] | 276
CC(O)CC(=O)Nc1sc2c(c1C(N)=O)CC(C)(C)OC2(C)C (stereo not drawn) [Compound 58, 2-(3-hydroxybutanoylamino)-5,5,7,7-tetramethyl-4H-thieno[2,3-c]pyran-3-carboxamide] | 178
CC1(C)Cc2c(sc(NC(=O)[C@H]3C[C@@H]3CO)c2C(N)=O)C(C)(C)O1 [Compound 83, 2-[[(1S,2S)-2-(hydroxymethyl)cyclopropanecarbonyl]amino]-5,5,7,7-tetramethyl-4H-thieno[2,3-c]pyran-3-carboxamide] | 644
CC1(C)Cc2c(sc(NC(=O)C(CO)C(C)(C)C)c2C(N)=O)C(C)(C)O1 (stereo not drawn) [Compound 89, 2-[[2-(hydroxymethyl)-3,3-dimethyl-butanoyl]amino]-5,5,7,7-tetramethyl-4H-thieno[2,3-c]pyran-3-carboxamide] | 313
CC1(C)Cc2c(sc(NC(=O)C3CCC(=O)N3)c2C(N)=O)C(C)(C)O1 (stereo not drawn) [Compound 107, N-(3-carbamoyl-5,5,7,7-tetramethyl-4H-thieno[2,3-c]pyran-2-yl)-5-oxo-pyrrolidine-2-carboxamide] | 387
Cn1ncc(C(=O)Nc2sc3c(c2C(N)=O)CC(C)(C)OC3(C)C)c1C(F)F [Compound 118, N-(3-carbamoyl-5,5,7,7-tetramethyl-4H-thieno[2,3-c]pyran-2-yl)-5-(difluoromethyl)-1-methyl-pyrazole-4-carboxamide] | 303
Cc1csc(C(=O)Nc2sc3c(c2C(N)=O)CC(C)(C)OC3(C)C)n1 [Compound 131, N-(3-carbamoyl-5,5,7,7-tetramethyl-4H-thieno[2,3-c]pyran-2-yl)-4-methyl-thiazole-2-carboxamide] | 168
Cc1ccn2c(=O)c(C(=O)Nc3sc4c(c3C(N)=O)CC(C)(C)OC4(C)C)cnc2c1 [Compound 144, N-(3-carbamoyl-5,5,7,7-tetramethyl-4H-thieno[2,3-c]pyran-2-yl)-8-methyl-4-oxo-pyrido[1,2-a]pyrimidine-3-carboxamide] | 472
Cc1oncc1C(=O)Nc1sc2c(c1C(N)=O)CC(C)(C)OC2(C)C [Compound 146, N-(3-carbamoyl-5,5,7,7-tetramethyl-4H-thieno[2,3-c]pyran-2-yl)-5-methyl-isoxazole-4-carboxamide] | 202
CC1(C)Cc2c(sc(NC(=O)C3(C)COC3)c2C(N)=O)C(C)(C)O1 [Compound 147, 5,5,7,7-tetramethyl-2-[(3-methyloxetane-3-carbonyl)amino]-4H-thieno[2,3-c]pyran-3-carboxamide] | 169
Cc1cc2nnc(C(=O)Nc3sc4c(c3C(N)=O)CC(C)(C)OC4(C)C)c(C)n2n1 [Compound 149, N-(3-carbamoyl-5,5,7,7-tetramethyl-4H-thieno[2,3-c]pyran-2-yl)-4,7-dimethyl-pyrazolo[5,1-c][1,2,4]triazine-3-carboxamide] | 346
CC1(C)Cc2c(sc(NC(=O)C3CCOCC3)c2C(N)=O)C(C)(C)O1 [Compound 158, 5,5,7,7-tetramethyl-2-(tetrahydropyran-4-carbonylamino)-4H-thieno[2,3-c]pyran-3-carboxamide] | 301
COCC(=O)Nc1sc2c(c1C(N)=O)CC(C)(C)OC2(C)C [Compound 160, 2-[(2-methoxyacetyl)amino]-5,5,7,7-tetramethyl-4H-thieno[2,3-c]pyran-3-carboxamide] | 641
CC1(C)Cc2c(sc(NC(=O)C3CCCO3)c2C(N)=O)C(C)(C)O1 (stereo not drawn) [Compound 162, 5,5,7,7-tetramethyl-2-(tetrahydrofuran-2-carbonylamino)-4H-thieno[2,3-c]pyran-3-carboxamide] | 602
CC1(C)Cc2c(sc(NC(=O)C3CCOC3)c2C(N)=O)C(C)(C)O1 (stereo not drawn) [Compound 163, 5,5,7,7-tetramethyl-2-(tetrahydrofuran-3-carbonylamino)-4H-thieno[2,3-c]pyran-3-carboxamide] | 636
COC(C)(C)C(=O)Nc1sc2c(c1C(N)=O)CC(C)(C)OC2(C)C [Compound 164, 2-[(2-methoxy-2-methyl-propanoyl)amino]-5,5,7,7-tetramethyl-4H-thieno[2,3-c]pyran-3-carboxamide] | 646

These reach a lower EC50. Values come first.

EC50 [nM] | Structure (SMILES)
145 | COCC(C)(O)C(=O)Nc1sc2c(c1C(N)=O)CC(C)(C)OC2(C)C (single isomer, unassigned) [Compound 165, 2-[[2-hydroxy-3-methoxy-2-methyl-propanoyl]amino]-5,5,7,7-tetramethyl-4H-thieno[2,3-c]pyran-3-carboxamide]
116 | COCC(C)(O)C(=O)Nc1sc2c(c1C(N)=O)CC(C)(C)OC2(C)C (single isomer, unassigned) [Compound 166]
8.51 | CCOc1cc(C(=O)Nc2sc3c(c2C(N)=O)CC(C)(C)OC3(C)C)n[nH]1 [Compound 54, 5-Ethoxy-1H-pyrazole-3-carboxylic acid (3-carbamoyl-5,5,7,7-tetramethyl-4,7-dihydro-5H-thieno[2,3-c]pyran-2-yl)-amide]
79.3 | CC(C)(O)CC(=O)Nc1sc2c(c1C(N)=O)CC(C)(C)OC2(C)C [Compound 56, 2-[(3-hydroxy-3-methyl-butanoyl)amino]-5,5,7,7-tetramethyl-4H-thieno[2,3-c]pyran-3-carboxamide]
160 | CCC(CO)C(=O)Nc1sc2c(c1C(N)=O)CC(C)(C)OC2(C)C (stereo not drawn) [Compound 86, 2-[2-(hydroxymethyl)butanoylamino]-5,5,7,7-tetramethyl-4H-thieno[2,3-c]pyran-3-carboxamide]
64.1 | CC1(C)Cc2c(sc(NC(=O)C3(CO)CC3(C)C)c2C(N)=O)C(C)(C)O1 (stereo not drawn) [Compound 91, 2-[[1-(hydroxymethyl)-2,2-dimethyl-cyclopropanecarbonyl]amino]-5,5,7,7-tetramethyl-4H-thieno[2,3-c]pyran-3-carboxamide]
52.2 | CC1(C)Cc2c(sc(NC(=O)c3cnccn3)c2C(N)=O)C(C)(C)O1 [Compound 138, N-(3-carbamoyl-5,5,7,7-tetramethyl-4H-thieno[2,3-c]pyran-2-yl)pyrazine-2-carboxamide]
144 | Cc1noc(C)c1C(=O)Nc1sc2c(c1C(N)=O)CC(C)(C)OC2(C)C [Compound 140, N-(3-carbamoyl-5,5,7,7-tetramethyl-4H-thieno[2,3-c]pyran-2-yl)-3,5-dimethyl-isoxazole-4-carboxamide]
154 | CC1(C)Cc2c(sc(NC(=O)c3cnc4c(c3)OCCO4)c2C(N)=O)C(C)(C)O1 [Compound 145, N-(3-carbamoyl-5,5,7,7-tetramethyl-4H-thieno[2,3-c]pyran-2-yl)-2,3-dihydro-[1,4]dioxino[2,3-b]pyridine-7-carboxamide]
33.9 | C[C@H](O)C(=O)Nc1sc2c(c1C(N)=O)CC(C)(C)OC2(C)C [Compound 153, 2-[[(2S)-2-hydroxypropanoyl]amino]-5,5,7,7-tetramethyl-4H-thieno[2,3-c]pyran-3-carboxamide]
71.5 | COCC(C)(O)C(=O)Nc1sc2c(c1C(N)=O)CC(C)(C)OC2(C)C (stereo not drawn) [Compound 155, 2-[(2-hydroxy-3-methoxy-2-methyl-propanoyl)amino]-5,5,7,7-tetramethyl-4H-thieno[2,3-c]pyran-3-carboxamide]
33.1 | CC1(C)Cc2c(sc(NC(=O)c3n[nH]c4ncccc34)c2C(N)=O)C(C)(C)O1 [Compound 157, N-(3-carbamoyl-5,5,7,7-tetramethyl-4H-thieno[2,3-c]pyran-2-yl)-1H-pyrazolo[3,4-b]pyridine-3-carboxamide]
7.58 | CC1(C)Cc2c(sc(NC(=O)C(O)C(F)(F)F)c2C(N)=O)C(C)(C)O1 (stereo not drawn) [Compound 167, 5,5,7,7-tetramethyl-2-[(3,3,3-trifluoro-2-hydroxy-propanoyl)amino]-4H-thieno[2,3-c]pyran-3-carboxamide]
